Assay [1] deals with T1, PAPD5 (Homo sapiens, UniProt Q8NDF8).
T1 construct: made in house
Put plainly: RNA oligo-adenylation (oligo-extension) inhibition assay with recombinant PAPD5. In kind it is biochemical. Set-up: key: minimal activity (0); range from minimal activity (0) to that of compound 1 (+++); range from minimal activity (0) to that of compound 1 (+++); that of compound 1 (+++). Conditions: qualitative measure of RNA oligo-extension inhibition, relative to compound 1. As for the experimental part:
An in vitro RNA polyadenylation assay using recombinant PAPD5, ATP and an oligonucleotide substrate utilized the following phenomenon: ATP utilization by PAPD5 reads out as a decreased luminescence signal produced by luciferase (KinaseGlo, Promega, Madison, WI).
(§1) Qualitative measure of RNA oligo-extension inhibition for the tested compounds, expressed as range from minimal activity (0) to that of compound 1 (+++), and results of a DSF binding assay (shown as shift in temperature at 100 μM of the compound) are shown in the Table 2 below.

In assay [2] the target is T1, PAPD5. Put plainly: DSF binding assay (shift in temperature). Conditions: shift in temperature at 100 μM of the compound. As for the experimental part:
as §1

Usually ΔTm stands for the change in melting temperature against a reference sample.

T1 sequence (Q8NDF8 68-698 isoform Q8NDF8-5 limits assumed): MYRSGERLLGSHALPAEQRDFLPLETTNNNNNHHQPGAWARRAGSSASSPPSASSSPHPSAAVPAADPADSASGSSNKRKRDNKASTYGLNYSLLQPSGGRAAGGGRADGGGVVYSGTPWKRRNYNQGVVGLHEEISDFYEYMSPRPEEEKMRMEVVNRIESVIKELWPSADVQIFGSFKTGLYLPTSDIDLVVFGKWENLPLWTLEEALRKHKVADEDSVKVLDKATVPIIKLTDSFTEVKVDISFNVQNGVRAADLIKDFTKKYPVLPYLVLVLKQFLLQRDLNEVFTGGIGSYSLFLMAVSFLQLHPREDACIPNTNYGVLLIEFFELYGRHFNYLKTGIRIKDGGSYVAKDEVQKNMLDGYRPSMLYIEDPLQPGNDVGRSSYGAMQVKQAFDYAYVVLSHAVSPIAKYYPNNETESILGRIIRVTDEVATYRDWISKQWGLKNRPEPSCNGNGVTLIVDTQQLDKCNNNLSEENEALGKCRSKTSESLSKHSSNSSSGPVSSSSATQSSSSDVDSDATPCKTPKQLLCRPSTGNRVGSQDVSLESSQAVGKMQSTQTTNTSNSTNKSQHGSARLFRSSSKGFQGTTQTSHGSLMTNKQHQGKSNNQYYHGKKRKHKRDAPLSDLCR

As for `CCOC(=O)c1cnc2ccc(OC(F)(F)F)cc2c1Nc1ncccc1C(=O)O` [Compound 1A, 2-[[3-ethoxycarbonyl-6-(trifluoromethoxy)-4-quinolyl]amino]pyridine-3-carboxylic acid], the “Inhibition of PAPD5 RNA oligo adenylation” value (shortened to “Inhibition”) on PAPD5 [1] is on record as 0. Further, the ΔTm at 100 µM at PAPD5 [2] was 0.4 °C. For `CCOC(=O)c1cnc2ccc(OC(F)(F)F)cc2c1Nc1scnc1C(=O)O` [Compound 5A, 5-((3-(ethoxycarbonyl)-6-(trifluoromethoxy)quinolin-4-yl)amino)thiazole-4-carboxylic acid], in that order: 0 and 2.3 °C.

For `CCOC(=O)c1cnc2ccc(OC(F)(F)F)cc2c1Nc1ccccc1-c1nn[nH]n1` [Compound 10A, ethyl 4-[2-(2H-tetrazol-5-yl)anilino]-6-(trifluoromethoxy)quinoline-3-carboxylate], the “Inhibition” value at PAPD5 [1] was “+”. Moreover, on PAPD5 [2], the ΔTm at 100 µM stood at 1 °C. Consider `CN(C)C(=O)c1cnc2ccc(OC(F)(F)F)cc2c1Nc1ccccc1C(=O)O` [Compound 12A, 2-[[3-(dimethylcarbamoyl)-6-(trifluoromethoxy)-4-quinolyl]amino]benzoic acid], for which the “Inhibition” value at PAPD5 [1] is recorded as “+”. The ΔTm at 100 µM at PAPD5 [2] was 6.1 °C. For `O=C(O)c1ccccc1Nc1c(C(=O)N2CCOCC2)cnc2ccc(OC(F)(F)F)cc12` [Compound 13A, 2-[[3-(morpholine-4-carbonyl)-6-(trifluoromethoxy)-4-quinolyl]amino]benzoic acid], in that order: “+” and 5.6 °C. For `O=C(O)c1ccccc1Nc1c(C(=O)N2CCNCC2)cnc2ccc(OC(F)(F)F)cc12` [Compound 14A, 2-[[3-(piperazine-1-carbonyl)-6-(trifluoromethoxy)-4-quinolyl]amino]benzoic acid], in that order: “++” and 1.7 °C. Regarding `N#Cc1cnc2ccc(OC(F)(F)F)cc2c1Nc1ccccc1C(=O)O` [Compound 15A, 2-[[3-cyano-6-(trifluoromethoxy)-4-quinolyl]amino]benzoic acid], the ΔTm at 100 µM on PAPD5 [2] was found to be 8.8 °C. As to `NS(=O)(=O)c1cnc2ccc(OC(F)(F)F)cc2c1Nc1ccccc1C(=O)O` [Compound 16A, 2-[[3-sulfamoyl-6-(trifluoromethoxy)-4-quinolyl]amino]benzoic acid], the “Inhibition” value at PAPD5 [1] was “+++”. Also, the ΔTm at 100 µM on PAPD5 [2] worked out at 9.6 °C. For `O=C(O)c1ccccc1Nc1c(-c2ncco2)cnc2ccc(OC(F)(F)F)cc12` [Compound 17A, 2-[[3-oxazol-2-yl-6-(trifluoromethoxy)-4-quinolyl]amino]benzoic acid] the same measures were “+++” and 8.4 °C. On to `CCOC(=O)c1cnc2ccc(C(=O)N3CCNCC3)cc2c1Nc1ccccc1C(=O)O` [Compound 18A, 2-[[3-ethoxycarbonyl-6-(piperazine-1-carbonyl)-4-quinolyl]amino]benzoic acid], for which the “Inhibition” value on PAPD5 [1] was determined as 0. The ΔTm at 100 µM at PAPD5 [2] is -0.1 °C. For `CCOC(=O)c1cnc2ccc(OC3CCNCC3)cc2c1Nc1ccccc1C(=O)O` [Compound 19A, 2-[[3-ethoxycarbonyl-6-(4-piperidyloxy)-4-quinolyl]amino]benzoic acid], in that order: 0 and 0.6 °C. For `CCOC(=O)c1cnc2ccc(-c3cccc4[nH]ccc34)cc2c1Nc1ccccc1C(=O)O` [Compound 23A, 2-[[3-ethoxycarbonyl-6-(1H-indol-4-yl)-4-quinolyl]amino]benzoic acid], in that order: “+++” and 4.6 °C. Take `CCOC(=O)c1cnc2ccc(OC(F)(F)F)cc2c1Nc1ccccc1C#N` [Compound 25A, ethyl 4-(2-cyanoanilino)-6-(trifluoromethoxy)quinoline-3-carboxylate]: the “Inhibition” value at PAPD5 [1] is listed as 0. Moreover, the ΔTm at 100 µM on PAPD5 [2] came out at 0.1 °C. For `CCOC(=O)c1cnc2ccc(Br)cc2c1Nc1ccccc1C(=O)O` [Compound 26A, 2-[(6-bromo-3-ethoxycarbonyl-4-quinolyl)amino]benzoic acid], in that order: “+++” and 11.1 °C. For `O=C(O)c1cccn2c(=O)c3cnc4ccc(OC(F)(F)F)cc4c3nc12` [Compound 27A, 14-oxo-7-(trifluoromethoxy)-17,18,19-triazatetracyclooctadeca-(4),1(8),2(7),3(9),5(10),6(17),11,13(18)-octaene-8-carboxylic acid], in that order: 0 and 2.8 °C. For `O=C(O)c1cccnc1Nc1c(C(=O)O)cnc2ccc(OC(F)(F)F)cc12` [Compound 28A, 4-[(3-carboxy-2-pyridyl)amino]-6-(trifluoromethoxy)quinoline-3-carboxylic acid] the same measures were “+” and 5.5 °C. As to `CCOC(=O)c1cnc2ccc(-n3ccc4cc(O)ccc43)cc2c1Nc1ccccc1C(=O)O` [Compound 29A, 2-[[3-ethoxycarbonyl-6-(5-hydroxyindol-1-yl)-4-quinolyl]amino]benzoic acid], the “Inhibition” value at PAPD5 [1] was “+++”. Moreover, the ΔTm at 100 µM on PAPD5 [2] came to 4.9 °C.

Turning to `O=c1c2cnc3ccc(OC(F)(F)F)cc3c2[nH]c2ccnn12` [Compound 30A, 6-(trifluoromethoxy)-14,15,16,17-tetrazatetracycloheptadeca-(6),1(7),2(8),3(15),4(9),5(16),10-heptaen-12-one], the “Inhibition” value on PAPD5 [1] is recorded as 0. Besides, the ΔTm at 100 µM at PAPD5 [2] came to 1.7 °C.

Turning to `CCOC(=O)c1ncn2c1[nH]c(=O)c1cnc3ccc(OC(F)(F)F)cc3c12` [Compound 31A, ethyl 14-oxo-7-(trifluoromethoxy)-17,18,19,20-tetrazatetracycloheptadeca-1(7),2(8),3(9),4(18),5(19),10,12-heptaene-12-carboxylate], the “Inhibition” value on PAPD5 [1] is listed as 0. On PAPD5 [2], the ΔTm at 100 µM is 1.8 °C. For `CCOC(=O)c1cnc2ccc(OC(F)(F)F)cc2c1Nc1ccccc1C(=O)O` [Compound 32A, 2-[[3-ethoxycarbonyl-6-(trifluoromethoxy)-4-quinolyl]amino]benzoic acid], in that order: “+++” and 7.9 °C. For `CCOC(=O)c1cnc2ccc(OC(F)(F)F)cc2c1Nc1scnc1C(=O)OCC` [Compound 33A, ethyl 5-[[3-ethoxycarbonyl-6-(trifluoromethoxy)-4-quinolyl]amino]thiazole-4-carboxylate], in that order: 0 and 0.7 °C. For `CCOC(=O)c1cnc2ccc(OC(F)(F)F)cc2c1Nc1ccccc1S(=O)(=O)NCC(F)(F)F` [Compound 34A, ethyl 4-[2-(2,2,2-trifluoroethylsulfamoyl)anilino]-6-(trifluoromethoxy)quinoline-3-carboxylate] the same measures were 0 and 0.3 °C.

As for `COCCCOc1cc2ncc(C#N)c(Nc3ccccc3C(=O)O)c2cc1OC` [Compound 51A, 2-[[3-cyano-6-methoxy-7-(3-methoxypropoxy)-4-quinolyl]amino]benzoic acid], the “Inhibition” value at PAPD5 [1] is “+”. Moreover, the ΔTm at 100 µM at PAPD5 [2] is 7.9 °C.

As for `COCCCOc1cc2ncc(C(=O)N3CCOCC3)c(Nc3ccccc3C(=O)O)c2cc1OC` [Compound 53A, 2-[[6-methoxy-7-(3-methoxypropoxy)-3-(morpholine-4-carbonyl)-4-quinolyl]amino]benzoic acid], the “Inhibition” value on PAPD5 [1] is recorded as “+”. The ΔTm at 100 µM on PAPD5 [2] was 5.2 °C.

Regarding `N#Cc1cnc2ccc(-c3cccc4ncccc34)cc2c1Nc1ccccc1C(=O)O` [Compound 54A, 2-[[3-cyano-6-(5-quinolyl)-4-quinolyl]amino]benzoic acid], the “Inhibition” value at PAPD5 [1] is given as “+++”. For the same compound, the “ΔTm 100 μM” value on PAPD5 [2] was “fluorescent”. Regarding `NS(=O)(=O)c1cnc2ccc(-c3cccc4ncoc34)cc2c1Nc1ccccc1C(=O)O` [Compound 64A, 2-[[6-(1,3-benzoxazol-7-yl)-3-sulfamoyl-4-quinolyl]amino]benzoic acid], the ΔTm at 100 µM on PAPD5 [2] was 6.3 °C. As for `O=C(O)c1c(Nc2c(S(=O)(=O)N3CCOCC3)cnc3ccc(Br)cc23)ccc(Br)c1O` [Compound 78A-BR, 3-bromo-6-[(6-bromo-3-morpholinosulfonyl-4-quinolyl)amino]-2-hydroxy-benzoic acid], the “ΔTm 100 μM” value at PAPD5 [2] is recorded as “fluorescent”. `COc1cccc(Nc2c(S(=O)(=O)N3CCOCC3)cnc3ccc(Cl)cc23)c1C(=O)O` [Compound 79A-INT, 2-[(6-chloro-3-morpholinosulfonyl-4-quinolyl)amino]-6-methoxy-benzoic acid]: at PAPD5 [2], the ΔTm at 100 µM amounted to 0 °C.

For `CC(=O)Nc1cccc(Nc2c(S(=O)(=O)N3CCOCC3)cnc3ccc(Br)cc23)c1C(=O)O` [Compound 85A, 2-acetamido-6-[(6-bromo-3-morpholinosulfonyl-4-quinolyl)amino]benzoic acid], the ΔTm at 100 µM at PAPD5 [2] was 0 °C. Same read-out and setting: with `Nc1cccc(Nc2c(S(=O)(=O)N3CCOCC3)cnc3ccc(Br)cc23)c1C(=O)O` [Compound 85A-BP, 2-amino-6-[(6-bromo-3-morpholinosulfonyl-4-quinolyl)amino]benzoic acid] the figure was 6.8 °C; with `COc1cccc(Nc2c(S(=O)(=O)N3CCN(C(=O)OCc4ccccc4)CC3)cnc3ccc(Br)cc23)c1C(=O)O` [Compound 93A-INT, 2-[[3-(4-benzyloxycarbonylpiperazin-1-yl)sulfonyl-6-bromo-4-quinolyl]amino]-6-methoxy-benzoic acid], 0 °C.

The values above are taken from US12486234B2, “PAPD5 inhibitors and methods of use thereof” (Children's Medical Center Corporation, priority 2019, dated 2025).
